Experimental data taken from patent EP2752191A1, “Compositions and methods using hdm2 antagonist and mek inhibitor” (SANOFI, priority 2013, dated 2014).

How the values were obtained:
217 kinases = settings: tested at 10 µM; cited from earlier work
90 non-kinase targets = settings: tested at 10 µM; cited from earlier work
[1] = test system: panel of twenty cell lines; test: HDM2-p53 inhibitor / MEK inhibitor combination screen, ATPLite growth inhibition 72 h, Loewe synergy (Example 1); format: cell-based; settings: at an FDR < 5% in some cell lines (FIG. 1)
Description: (§1) The combinations of HDM2-p53 inhibitor and MEK inhibitor were examined in a panel of twenty cell lines (Table 2).
(§2) A 36-point combination dose response matrix over a treatment time of seventy-two hours was used. The method by which this screen was performed is described below.
(§3) Cells were thawed from a liquid nitrogen preserved state. Once cells had been expanded and divided at their expected doubling times, cells were seeded in complete media (Table 3) at 100 cells per well in black 1536 tissue culture treated plates. Assay plates were centrifuged for 2 min at 335 x g, incubated at room temperature for 20 min, and incubated at 37° C for 24 hours before treatment.
(§4) ATP levels were used as a measure of cell number (cell growth). At the time of treatment, ATP levels were measured in an untreated set of assay plates (Tzero plates). ATP levels were measured by adding ATPLite (Perkin Elmer) according to manufacturer's instructions. The Tzero plates were read using ultra-sensitive luminescence on Envision Plate Readers. Assay plates receiving treatment were incubated with compound for 72 h at 37° C with 5% CO2. After 72 h, plates were developed for endpoint analysis using ATPLite.
Assay plates were accepted for analysis if they passed the following quality control standards: relative luciferase values were consistent throughout the entire experiment, Z' factor scores were greater than 0.6, untreated/vehicle controls behaved consistently on the plate. The calculation for synergy score is provided below.
(§5) Growth Inhibition (GI) was used as a measure of cell viability. As described above, ATP levels were measured at the time of dosing (T0) and after 72 hours (T72). The effect of vehicle alone on cell viability was determined by measuring ATP levels at T0 and 72 hours after treatment of cells with vehicle alone (T72).
GI was calculated by applying the following test and equation: If T < V0 :100*(1-T-V0/V0) [formula] If T ≥ V0 :100*(1-T-V0/V-V0) [formula]
Where T is the signal measure for a test article, V is the vehicle-treated control measure, and V0 is the vehicle control measure at time zero. This formula is derived from the Growth Inhibition calculation used in the National Cancer Institute's NCI-60 high throughput screen, as described on the world wide web at dtp.nci.nih.gov/branches/btb/ivclsp.html. A GI reading of 0% represents no growth inhibition-that is, cells treated with compound had similar levels of ATP as cells treated with vehicle and measured at 72 hours. A GI of 100% represents complete growth inhibition-that is, cells treated with compound had similar levels of ATP as cells treated with vehicle and measured at T0. A GI of 100% where cell numbers have not increased during the treatment period is indicative of a cytostatic effect for compounds reaching a plateau at this effect level. A GI of 200% represents complete death of all cells in the culture well which is indicative of an apoptotic effect.
For each cell line, the dose-response curve was measured with each HDM2-p53 antagonist and each MEK inhibitor as single agents and in pair wise combinations. Using the potency values from the single agent dose-response curves, the compounds were assigned to different groups of similar potency. Multiple doses above and below the EC50 of a given HDM2-p53 antagonist or MEK inhibitor were measured.
In each well of a plate, ATP levels were measured by […] assay as described above. ATP levels are proportional to the number of remaining live cells. […]

MV4-11 cells = test: ATPLite growth inhibition 72 h, dose matrix (Example 1); format: cell-based; settings: single agents, or Compound (1) with Compound (6) present at 3.3 uM; 72 h (FIG. 3)
Description: as §1, §2, §3
as §4, with “Assay plates receiving treatment were incubated with compound for 72 h at 37° C with 5% CO2. After 72 h, plates were developed for endpoint analysis using ATPLite.” left out
as §5, with “alone (T72). […]” for “alone (T72).”

C32 cells = test: as above; format: cell-based; settings: single agents, or Compound (1) with Compound (6) present at 1.1 uM; 72 h (FIG. 2)
Description: as §1, §2, §3
as §4, with “Assay plates receiving treatment were incubated with compound for 72 h at 37° C with 5% CO2. After 72 h, plates were developed for endpoint analysis using ATPLite.” left out
as §5, with “alone (T72). […]” for “alone (T72).”

SMILES	Loewe synergy with both Compound (1) and Compound (2) [1]	also measured
O=C(NC[C@H](O)CO)c1ccncc1Nc1ccc(I)cc1F [Compound (4), N-((S)-2,3-dihydroxypropyl)-3-(2-fluoro-4-iodo-phenylamino)isonicotinamide]		activity against 217 kinases (217 kinases): no activity; activity against 90 non-kinase targets (90 non-kinase targets): no activity
Cn1cnc2c(F)c(Nc3ccc(Br)cc3Cl)c(C(=O)NOCCO)cc21 [Compound (6)]	statistically significant Loewe synergy	effect on MV4-11 cells (growth inhibition) (MV4-11 cells): cytostasis; effect on C32 cells (growth inhibition) (C32 cells): cytostasis
O=C(NOCC(O)CO)c1ccc(F)c(F)c1Nc1ccc(I)cc1F (stereo not drawn) [Compound (7), N-(2,3-dihydroxy-propoxy)-3,4-difluoro-2-(2-fluoro-4-iodo-phenylamino)-benzamide]	statistically significant Loewe synergy	
Cc1cnc(Nc2ccc(F)cc2Cl)nc1-c1c[nH]c(C(=O)N[C@H](CO)c2cccc(Cl)c2)c1 [Compound (8), 4-[2-(2-chloro-4-fluorophenylamino)-5-methylpyrimidin-4-yl]-N-[1(S)-(3-chlorophenyl)-2-hydroxyethyl]-1H-pyrrole-2-carboxamide]	statistically significant Loewe synergy	
CNS(=O)(=O)Nc1nccc(Cc2c(C)c3ccc(Oc4ncccn4)cc3oc2=O)c1F [Compound (9), N-[3-fluoro-4-[4-methyl-2-oxo-7-(pyrimidin-2-yloxy)-2H-1-benzopyran-3-ylmethyl]pyridin-2-yl]-N'-methylsulfamide]	statistically significant Loewe synergy	
COc1cc2c(Nc3ccc(Oc4ccccc4)cc3)c(C#N)cnc2cc1OCCCN1CCOCC1 [Compound (10), 6-methoxy-7-[3-(4-morpholinyl)propoxy]-4-(4-phenoxyphenylamino)quinoline-3-carbonitrile]	statistically significant Loewe synergy	
